Patent publication US10548894B2, “Combination therapy” (Array BioPharma Inc., priority 2013, dated 2020)

Assays:
[1] = tested on: COLO 741; assay: xCELLigence real-time impedance growth assay; format: cell-based; conditions: Formula (I) 500 nM, Compound H 1 uM
Method: (§1) Shown is the growth in real time of the (Top A) COLO 741 and (Bottom B) SK-MEL-5 cell lines as measured using the xCELLigence impedance-based cell analyzer as discussed in Example 5. Where indicated FGF2 and Compound H were supplemented to the media at concentrations of 100 ng/ml, and 1 uM, respectively. The Compound of Formula (I) was used at 500 nM in (A) and 100 nM (B).
(§2) For CellTiter-Glo™ assays, cells were dispensed into tissue culture treated 96-well plates (Costar, catalog number 3904) with a final volume of 80 μL of medium and at density of 3000 cells per well. 12 to 24 hrs after plating, 20 μL of each compound dilution series were transferred to plates containing the cells, resulting in compound concentration ranges of 2700 nM to 3.7 nM by 3-fold dilutions and a final DMSO concentration of 0.16%. The total volume in each well was […]. Plates were incubated for 72 hrs and the effects of compounds on cell proliferation was determined using the CellTiter-Glo™ Luminescent Cell Viability Assay (CTG, Promega) and a Victor™ X4 plate reader (Perkin Elmer). For real-time growth assays cells were seeded into xCELLigence E-plates (Roche catalogue number 05232368001) at a density of 4000 cells per well in a total of 90 μl of media and 24 hrs after plating, 11 μl of media with or without compound was added to the wells. 2-4 replicate wells were plated for all cell lines and treatment groups with the exception of LGX818+FGF2 treated COLO 741 cells (N=1). Where indicated final concentrations of compounds and growth factor were 1 uM for Compound H, 100 ng/ml for FGF2, and either 100 nM (SK-MEL-5) or 500 nM (COLO 741) for the Compound of Formula (I). Cells were continuously monitored every two hours for seven days with the xCELLigence real-time impedance based cell analyzer. Impedance was measured using the electrodes on the E-plates, with increasing surface area coverage of cells creating greater electrode impedance. […] In all cases cell index values were normalized to a timepoint immediately following the addition of compound.
(§3) To determine whether rescue of BRAFV600E melanoma cell lines by FGF2 was dependent on FGFR signaling, we examined whether the selective FGFR inhibitor Compound H could prevent FGF2-mediated rescue. Two cell lines which were rescued to varying degrees by FGF2 (COLO 741, and SK-MEL-5, Table 8-1) were cultured in media containing the Compound of Formula (I) and FGF2 either in the presence or absence of Compound H and growth measured in real time.

[2] = tested on: SK-MEL-5; assay: xCELLigence real-time impedance growth assay; format: cell-based; conditions: Formula (I) 100 nM, Compound H 1 uM
Method: as §1, §2, §3

COC(=O)N[C@@H](C)CNc1nccc(-c2cn(C(C)C)nc2-c2cc(Cl)cc(NS(C)(=O)=O)c2F)n1 [Compound of Formula (I)]
growth in real time (cell index) ([1]; COLO 741, FGF2 100 ng/ml): growth suppression was abrogated
growth in real time (cell index) ([1]; COLO 741, absence of FGF2): suppressed the growth
growth in real time (cell index) ([2]; SK-MEL-5, FGF2 100 ng/ml): growth suppression was abrogated
growth in real time (cell index) ([2]; SK-MEL-5, absence of FGF2): suppressed the growth
